Experimental data published in ChEMBL document CHEMBL4118128, “Discovery of chiral dihydropyridopyrimidinones as potent, selective and orally bioavailable inhibitors of AKT” (Bioorg Med Chem Lett, 2018).
Values after ≈ are worked out from the molar mass of the structure shown. Active and inactive are the calls of the source. No cut-off for these calls is given here.

Key:
[1] = biological target: Ribosomal protein S6 kinase beta-1 (Homo sapiens, UniProt P23443); assay: Inhibition of human p70S6K measured at apparent ATP Km level
Rattus norvegicus [2] = assay: Intrinsic unbound clearance in Sprague-Dawley rat at 10 mg/kg, iv by LC-MS/MS method; format: ADME, organism-based; conditions: in vivo
[3] = Lipophilicity, log P of the compound; format: physicochemical; conditions: octanol/water
[4] = biological target: Protein kinase C beta type (Homo sapiens, UniProt P05771); assay: Inhibition of human PKCbeta2 measured at apparent ATP Km level
[5] = AUC (0 to 24 hrs) in Sprague-Dawley rat at 5 mg/kg, po by LC-MS/MS method; format: ADME, organism-based; set-up: dose 5 mg/kg, time < 24 hr, route oral; conditions: in vivo
[6] = Clearance in Sprague-Dawley rat at 10 mg/kg, iv by LC-MS/MS method; format: ADME, organism-based; conditions: in vivo
[7] = Oral bioavailability in Sprague-Dawley rat at 5 mg/kg by LC-MS/MS method; format: ADME, organism-based; conditions: in vivo
[8] = Aqueous solubility in pH 7.4 buffer; format: physicochemical
[9] = Half life in Sprague-Dawley rat at 10 mg/kg, iv by LC-MS/MS method; format: ADME, organism-based; conditions: in vivo
[10] = Volume of distribution at steady state in Sprague-Dawley rat at 10 mg/kg, iv or 5 mg/kg, po by LC-MS/MS method; format: ADME, organism-based; conditions: in vivo, read-out: Vdss
[11] = biological target: T1, RAC-alpha serine/threonine-protein kinase (Homo sapiens, UniProt P31749); assay: Inhibition of AKT1 in human U87MG cells assessed as reduction in GSK3beta Ser9 phosphorylation incubated for 1 hr by alpha screen Surefire assay; format: cell-based
[12] = biological target: T1, RAC-alpha serine/threonine-protein kinase; assay: Inhibition of human recombinant AKT1 expressed in insect cells incubated for 60 mins measured at apparent ATP Km level by kinase ADP-FP assay
[13] = biological target: Rho-associated protein kinase 2 (Homo sapiens, UniProt O75116); assay: Inhibition of histidine-tagged human recombinant ROCK2 (11 to 552 residues) expressed in insect cells using RFARKGSLRQKNV substrate incubated for 60 mins measured at apparent ATP Km level by kinase ADP-FP assay
[14] = Inhibition of human PKA measured at apparent ATP Km level
[15] = biological target: Ribosomal protein S6 kinase alpha-1 (Homo sapiens, UniProt Q15418); assay: Inhibition of human RSK1 measured at apparent ATP Km level
Homo sapiens = species: Homo sapiens; assay: Selectivity index, ratio of IC50 for human recombinant ROCK2 (11 to 552 residues) expressed in insect cells to IC50 for human recombinant AKT1 expressed in insect cells
[16] = biological target: Voltage-gated inwardly rectifying potassium channel KCNH2 (Homo sapiens, UniProt Q12809); assay: Inhibition of human ERG
[17] = Cmax in P-gp and BCRP knockout mouse at 2.5 mg/kg, po by LC-MS/MS method; format: ADME, organism-based; set-up: dose 2.5 mg/kg, route oral; conditions: in vivo
[18] = AUC (0 to 24 hrs) in P-gp and BCRP knockout mouse at 2.5 mg/kg, po by LC-MS/MS method; format: ADME, organism-based; set-up: time < 24 hr, dose 2.5 mg/kg, route oral; conditions: in vivo
[19] = AUC (0 to 24 hrs) in wild type mouse at 2.5 mg/kg, po by LC-MS/MS method; format: ADME, organism-based; set-up: time < 24 hr, dose 2.5 mg/kg, route oral; conditions: in vivo
Mus musculus = assay: Ratio of AUC (0 to 24 hrs) in P-gp and BCRP knockout mouse at 2.5 mg/kg, po to AUC (0 to 24 hrs) in wild type mouse at 2.5 mg/kg, po; format: ADME, organism-based; conditions: in vivo
[20] = Cmax in wild type mouse at 2.5 mg/kg, po by LC-MS/MS method; format: ADME, organism-based; set-up: dose 2.5 mg/kg, route oral; conditions: in vivo
Rattus norvegicus [21] = assay: Toxicity in human U87MG cells xenografted rat assessed as induction of body weight loss at 25 mg/kg, po bid for 4 weeks; format: organism-based; conditions: in vivo, 672 h
U-87 MG [22] = assay: Antitumor activity against human U87MG cells xenografted in rat assessed as inhibition of tumor growth at 25 to 50 mg/kg, po qd for 4 weeks; format: functional, organism-based; conditions: U-87MG ATCC
U-87 MG [23] = assay: Antitumor activity against human U87MG cells xenografted in rat assessed as inhibition of tumor growth at 25 mg/kg, po bid for 4 weeks; format: functional, organism-based; conditions: U-87MG ATCC
Rattus norvegicus [24] = assay: Toxicity in human U87MG cells xenografted rat assessed as induction of body weight loss at 25 to 50 mg/kg, po qd for 4 weeks; format: organism-based; conditions: in vivo, 672 h

Chain of Protein kinase C beta type (P05771 whole entry): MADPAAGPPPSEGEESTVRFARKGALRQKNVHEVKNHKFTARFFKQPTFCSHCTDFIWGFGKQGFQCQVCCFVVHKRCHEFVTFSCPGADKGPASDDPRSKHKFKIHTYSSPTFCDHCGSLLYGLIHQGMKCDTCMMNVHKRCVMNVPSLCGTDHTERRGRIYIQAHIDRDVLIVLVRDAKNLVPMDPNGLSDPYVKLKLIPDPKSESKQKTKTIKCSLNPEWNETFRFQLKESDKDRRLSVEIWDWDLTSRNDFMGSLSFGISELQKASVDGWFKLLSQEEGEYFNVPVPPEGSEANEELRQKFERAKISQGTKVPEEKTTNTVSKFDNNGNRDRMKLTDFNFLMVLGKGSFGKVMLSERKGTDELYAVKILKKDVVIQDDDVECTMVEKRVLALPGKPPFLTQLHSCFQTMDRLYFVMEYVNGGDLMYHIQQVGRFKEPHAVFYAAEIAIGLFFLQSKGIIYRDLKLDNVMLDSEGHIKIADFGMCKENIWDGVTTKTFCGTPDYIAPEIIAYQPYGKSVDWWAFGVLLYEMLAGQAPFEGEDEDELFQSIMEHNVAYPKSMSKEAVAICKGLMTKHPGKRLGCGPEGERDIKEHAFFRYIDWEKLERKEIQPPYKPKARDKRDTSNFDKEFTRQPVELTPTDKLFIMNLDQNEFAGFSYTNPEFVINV
Chain of Rho-associated protein kinase 2 (O75116 whole entry, the tested form may be a part): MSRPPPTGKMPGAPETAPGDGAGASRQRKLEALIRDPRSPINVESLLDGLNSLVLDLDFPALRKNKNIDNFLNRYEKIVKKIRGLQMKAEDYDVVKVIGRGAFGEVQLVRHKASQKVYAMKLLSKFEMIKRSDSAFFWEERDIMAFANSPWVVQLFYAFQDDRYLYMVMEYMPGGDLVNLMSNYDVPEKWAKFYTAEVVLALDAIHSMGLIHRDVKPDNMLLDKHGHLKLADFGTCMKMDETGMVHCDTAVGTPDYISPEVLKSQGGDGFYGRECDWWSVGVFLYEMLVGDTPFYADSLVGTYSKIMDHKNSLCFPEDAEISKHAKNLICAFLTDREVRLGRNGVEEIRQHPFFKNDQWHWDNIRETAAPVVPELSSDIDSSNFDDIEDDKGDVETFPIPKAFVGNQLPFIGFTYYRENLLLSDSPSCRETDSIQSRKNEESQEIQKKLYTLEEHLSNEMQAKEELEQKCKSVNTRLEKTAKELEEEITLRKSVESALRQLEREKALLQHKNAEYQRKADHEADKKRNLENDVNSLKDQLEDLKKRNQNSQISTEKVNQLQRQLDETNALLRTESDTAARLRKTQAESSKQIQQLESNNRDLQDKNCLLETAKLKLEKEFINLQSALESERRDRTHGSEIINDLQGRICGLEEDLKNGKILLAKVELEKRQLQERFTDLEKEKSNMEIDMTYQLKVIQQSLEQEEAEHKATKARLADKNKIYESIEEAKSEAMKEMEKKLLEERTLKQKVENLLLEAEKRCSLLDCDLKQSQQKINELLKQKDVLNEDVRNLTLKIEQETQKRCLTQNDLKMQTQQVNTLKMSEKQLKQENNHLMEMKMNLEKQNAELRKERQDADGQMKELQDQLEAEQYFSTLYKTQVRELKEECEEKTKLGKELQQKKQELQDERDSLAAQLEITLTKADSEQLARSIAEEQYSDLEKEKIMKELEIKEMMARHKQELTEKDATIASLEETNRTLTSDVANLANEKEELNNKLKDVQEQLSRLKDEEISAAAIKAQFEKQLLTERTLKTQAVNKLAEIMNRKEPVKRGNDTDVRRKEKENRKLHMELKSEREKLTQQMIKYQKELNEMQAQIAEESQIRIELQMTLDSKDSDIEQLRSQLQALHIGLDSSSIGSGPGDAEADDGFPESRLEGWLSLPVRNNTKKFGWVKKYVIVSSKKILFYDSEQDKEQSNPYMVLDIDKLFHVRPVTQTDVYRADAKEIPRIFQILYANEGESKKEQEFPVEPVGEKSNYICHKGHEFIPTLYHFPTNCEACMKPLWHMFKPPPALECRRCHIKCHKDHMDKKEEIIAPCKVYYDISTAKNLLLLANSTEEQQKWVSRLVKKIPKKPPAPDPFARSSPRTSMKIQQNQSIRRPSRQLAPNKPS
Chain of Ribosomal protein S6 kinase alpha-1 (Q15418 whole entry, the tested form may be a part): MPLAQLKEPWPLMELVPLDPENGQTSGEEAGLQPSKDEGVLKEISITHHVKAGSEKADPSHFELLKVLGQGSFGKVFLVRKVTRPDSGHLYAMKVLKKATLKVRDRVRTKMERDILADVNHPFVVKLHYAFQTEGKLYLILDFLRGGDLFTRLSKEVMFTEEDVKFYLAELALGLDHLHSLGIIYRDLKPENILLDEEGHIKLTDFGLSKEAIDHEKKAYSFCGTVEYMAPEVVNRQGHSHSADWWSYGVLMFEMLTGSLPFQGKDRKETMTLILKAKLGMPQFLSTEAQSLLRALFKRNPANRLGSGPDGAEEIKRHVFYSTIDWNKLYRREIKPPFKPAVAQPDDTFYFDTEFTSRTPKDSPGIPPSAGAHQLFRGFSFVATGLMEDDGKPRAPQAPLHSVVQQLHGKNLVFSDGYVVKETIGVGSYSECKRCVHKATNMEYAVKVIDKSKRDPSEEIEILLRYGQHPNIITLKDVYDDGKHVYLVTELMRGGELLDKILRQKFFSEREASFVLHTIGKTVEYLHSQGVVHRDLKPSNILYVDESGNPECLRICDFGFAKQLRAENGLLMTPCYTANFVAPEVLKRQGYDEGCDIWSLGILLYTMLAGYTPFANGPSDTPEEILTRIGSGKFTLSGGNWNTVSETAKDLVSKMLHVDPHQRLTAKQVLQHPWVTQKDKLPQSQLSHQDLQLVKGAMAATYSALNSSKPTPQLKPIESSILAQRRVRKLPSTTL
Chain of Ribosomal protein S6 kinase beta-1 (P23443 whole entry): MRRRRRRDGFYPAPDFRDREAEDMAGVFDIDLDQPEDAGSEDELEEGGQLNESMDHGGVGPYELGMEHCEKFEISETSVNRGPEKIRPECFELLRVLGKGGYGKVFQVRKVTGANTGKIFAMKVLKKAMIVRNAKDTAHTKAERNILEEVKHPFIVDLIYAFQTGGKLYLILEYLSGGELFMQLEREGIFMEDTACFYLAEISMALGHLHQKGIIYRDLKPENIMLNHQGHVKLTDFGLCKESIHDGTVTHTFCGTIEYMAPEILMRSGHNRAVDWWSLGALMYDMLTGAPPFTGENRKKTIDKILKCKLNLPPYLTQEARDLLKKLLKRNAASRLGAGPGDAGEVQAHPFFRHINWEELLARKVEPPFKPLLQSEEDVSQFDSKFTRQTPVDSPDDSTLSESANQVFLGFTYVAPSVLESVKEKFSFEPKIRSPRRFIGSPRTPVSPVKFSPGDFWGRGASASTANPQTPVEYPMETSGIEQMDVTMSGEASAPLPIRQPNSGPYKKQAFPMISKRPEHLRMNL
Chain of Voltage-gated inwardly rectifying potassium channel KCNH2 (Q12809 whole entry): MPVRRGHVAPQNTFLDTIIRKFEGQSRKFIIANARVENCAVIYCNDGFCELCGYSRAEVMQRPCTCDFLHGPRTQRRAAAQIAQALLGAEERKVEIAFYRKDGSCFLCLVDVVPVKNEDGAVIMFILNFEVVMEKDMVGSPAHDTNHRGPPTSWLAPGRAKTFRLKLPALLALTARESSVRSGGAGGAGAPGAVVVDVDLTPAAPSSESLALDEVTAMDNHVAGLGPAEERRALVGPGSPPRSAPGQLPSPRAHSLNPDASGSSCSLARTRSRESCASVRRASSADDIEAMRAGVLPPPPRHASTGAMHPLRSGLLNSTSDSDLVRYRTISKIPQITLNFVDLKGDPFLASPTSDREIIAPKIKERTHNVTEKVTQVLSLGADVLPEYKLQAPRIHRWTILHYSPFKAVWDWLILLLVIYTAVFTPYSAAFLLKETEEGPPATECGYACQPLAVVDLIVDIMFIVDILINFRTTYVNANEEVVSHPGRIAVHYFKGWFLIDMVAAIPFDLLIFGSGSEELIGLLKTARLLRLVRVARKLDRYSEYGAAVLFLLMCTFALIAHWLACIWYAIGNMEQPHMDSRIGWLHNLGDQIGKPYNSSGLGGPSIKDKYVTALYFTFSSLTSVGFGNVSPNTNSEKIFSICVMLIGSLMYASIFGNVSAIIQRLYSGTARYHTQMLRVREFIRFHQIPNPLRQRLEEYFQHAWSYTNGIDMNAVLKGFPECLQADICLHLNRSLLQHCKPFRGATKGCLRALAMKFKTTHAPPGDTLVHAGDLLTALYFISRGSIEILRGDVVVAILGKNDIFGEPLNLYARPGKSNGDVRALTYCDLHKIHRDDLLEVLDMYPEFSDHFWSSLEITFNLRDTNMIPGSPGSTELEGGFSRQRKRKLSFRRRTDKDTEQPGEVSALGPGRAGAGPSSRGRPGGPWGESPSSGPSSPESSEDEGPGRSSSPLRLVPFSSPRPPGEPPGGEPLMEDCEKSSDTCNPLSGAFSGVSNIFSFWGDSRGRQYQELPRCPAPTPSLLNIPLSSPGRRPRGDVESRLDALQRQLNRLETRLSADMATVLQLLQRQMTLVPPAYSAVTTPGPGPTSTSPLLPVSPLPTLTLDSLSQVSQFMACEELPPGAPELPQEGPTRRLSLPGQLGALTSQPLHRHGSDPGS
T1 sequence (P31749 whole entry): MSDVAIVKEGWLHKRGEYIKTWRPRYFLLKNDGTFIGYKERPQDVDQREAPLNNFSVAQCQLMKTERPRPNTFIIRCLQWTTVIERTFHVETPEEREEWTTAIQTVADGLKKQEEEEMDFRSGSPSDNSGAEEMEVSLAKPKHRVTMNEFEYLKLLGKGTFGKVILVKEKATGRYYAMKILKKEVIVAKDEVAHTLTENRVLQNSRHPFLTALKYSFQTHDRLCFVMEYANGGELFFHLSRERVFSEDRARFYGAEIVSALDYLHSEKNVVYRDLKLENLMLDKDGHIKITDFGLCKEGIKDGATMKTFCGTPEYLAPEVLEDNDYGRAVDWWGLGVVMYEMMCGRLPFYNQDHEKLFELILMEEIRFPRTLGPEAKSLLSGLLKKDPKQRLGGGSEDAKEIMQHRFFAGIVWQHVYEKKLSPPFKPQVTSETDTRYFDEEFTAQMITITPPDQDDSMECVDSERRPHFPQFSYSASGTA

Structure (SMILES)	IC50 [1] [nM]	CL free (Rattus norvegicus [2]) [mL/min/kg]	logP [3]	IC50 [4] [nM]	AUC(0-t) at 24 h [5] [ng·h/mL]	clearance [6] [mL/min/kg]	bioavailability [7] [%]	solubility [8] [µg/mL]	half-life [9] [h]	Vd [10] [L/kg]	IC50 [11] [nM]	IC50 [12] [nM]	IC50 [13] [nM]	IC50 [14] [nM]	IC50 [15] [nM]	Cmax [17] [ng/mL]	AUC(0-t) at 24 h [18] [ng·h/mL]	AUC(0-t) at 24 h [19] [ng·h/mL]	Ratio IC50 (Homo sapiens)	INH [16] [µM]	also measured
Cn1cc(-c2ccc(F)c(C(F)(F)F)c2)nc1C1CCN(c2ncnc3[nH]ncc23)CC1 [LY-2584702]	4																				
C[C@@H]1CC(=O)Nc2ncnc(N3CCC(c4nc(C5CCOCC5)cn4CCN4CCCC4)CC3)c21	1900	85	0.95	20000	173	64	14	> 2000	8.6	13.8	230	4	> 20000	412	699	189	501	108	> 1000	> 100	Ratio (Mus musculus): 5; Cmax [20]: 33 ng/mL
C[C@@H]1CC(=O)Nc2ncnc(N3CCC(c4nc(CCC(F)(F)F)cn4CCN4CCCC4)CC3)c21	399	43	2.39	3980	638	74	55	990 (≈ 1960 µM)	2.3	11.6	92	5	> 20000	84	568	109	359	290	> 1000	18.5	Activity (Rattus norvegicus [21]): Non-Toxic; TGI (U-87 MG [22]): Dose-dependent effect; TGI (U-87 MG [23]): Active; Activity (Rattus norvegicus [24]): Non-Toxic; Cmax [20]: 76 ng/mL

Second part, led by results:

IC50 [1] [nM]	CL free (Rattus norvegicus [2]) [mL/min/kg]	logP [3]	IC50 [4] [nM]	AUC(0-t) at 24 h [5] [ng·h/mL]	clearance [6] [mL/min/kg]	bioavailability [7] [%]	solubility [8] [µg/mL]	half-life [9] [h]	Vd [10] [L/kg]	IC50 [11] [nM]	IC50 [12] [nM]	IC50 [13] [nM]	IC50 [14] [nM]	IC50 [15] [nM]	Cmax [17] [ng/mL]	AUC(0-t) at 24 h [18] [ng·h/mL]	AUC(0-t) at 24 h [19] [ng·h/mL]	Structure (SMILES)	Ratio IC50 (Homo sapiens)	INH [16] [µM]	also measured
876	66	1.66	16300	24100	2.18	64	1860 (≈ 3900 µM)	3	0.65	2460	11	> 20000	124	272				C[C@@H]1CC(=O)Nc2ncnc(N3CCC(c4nc(C(F)(F)F)cn4CCN4CCCC4)CC3)c21	> 1000	> 100	
35		4.84	36				35 (≈ 61.2 µM)			39	3	> 20000	653	20				C[C@@H]1CC(=O)Nc2ncnc(N3CCC(c4nc(-c5ccc(F)c(C(F)(F)F)c5)cn4CCN4CCCC4)CC3)c21	> 1000	1.74	
